pIC50: −log10 of the molar value.
Experiments:
[1] = biological target: T1, Poly [ADP-ribose] polymerase tankyrase-1 (Homo sapiens, UniProt O95271); assay: Inhibition of hexa-histidine tagged recombinant tankyrase 1 biotinylated catalytic domain (amino acids 1106 to 1325) (unknown origin) expressed in Escherichia coli BL21 (DE3) assessed as reduction in ADP-ribosyl transferase activity using NAD+ by chemiluminescence detection based assay
T1 sequence (O95271 whole entry): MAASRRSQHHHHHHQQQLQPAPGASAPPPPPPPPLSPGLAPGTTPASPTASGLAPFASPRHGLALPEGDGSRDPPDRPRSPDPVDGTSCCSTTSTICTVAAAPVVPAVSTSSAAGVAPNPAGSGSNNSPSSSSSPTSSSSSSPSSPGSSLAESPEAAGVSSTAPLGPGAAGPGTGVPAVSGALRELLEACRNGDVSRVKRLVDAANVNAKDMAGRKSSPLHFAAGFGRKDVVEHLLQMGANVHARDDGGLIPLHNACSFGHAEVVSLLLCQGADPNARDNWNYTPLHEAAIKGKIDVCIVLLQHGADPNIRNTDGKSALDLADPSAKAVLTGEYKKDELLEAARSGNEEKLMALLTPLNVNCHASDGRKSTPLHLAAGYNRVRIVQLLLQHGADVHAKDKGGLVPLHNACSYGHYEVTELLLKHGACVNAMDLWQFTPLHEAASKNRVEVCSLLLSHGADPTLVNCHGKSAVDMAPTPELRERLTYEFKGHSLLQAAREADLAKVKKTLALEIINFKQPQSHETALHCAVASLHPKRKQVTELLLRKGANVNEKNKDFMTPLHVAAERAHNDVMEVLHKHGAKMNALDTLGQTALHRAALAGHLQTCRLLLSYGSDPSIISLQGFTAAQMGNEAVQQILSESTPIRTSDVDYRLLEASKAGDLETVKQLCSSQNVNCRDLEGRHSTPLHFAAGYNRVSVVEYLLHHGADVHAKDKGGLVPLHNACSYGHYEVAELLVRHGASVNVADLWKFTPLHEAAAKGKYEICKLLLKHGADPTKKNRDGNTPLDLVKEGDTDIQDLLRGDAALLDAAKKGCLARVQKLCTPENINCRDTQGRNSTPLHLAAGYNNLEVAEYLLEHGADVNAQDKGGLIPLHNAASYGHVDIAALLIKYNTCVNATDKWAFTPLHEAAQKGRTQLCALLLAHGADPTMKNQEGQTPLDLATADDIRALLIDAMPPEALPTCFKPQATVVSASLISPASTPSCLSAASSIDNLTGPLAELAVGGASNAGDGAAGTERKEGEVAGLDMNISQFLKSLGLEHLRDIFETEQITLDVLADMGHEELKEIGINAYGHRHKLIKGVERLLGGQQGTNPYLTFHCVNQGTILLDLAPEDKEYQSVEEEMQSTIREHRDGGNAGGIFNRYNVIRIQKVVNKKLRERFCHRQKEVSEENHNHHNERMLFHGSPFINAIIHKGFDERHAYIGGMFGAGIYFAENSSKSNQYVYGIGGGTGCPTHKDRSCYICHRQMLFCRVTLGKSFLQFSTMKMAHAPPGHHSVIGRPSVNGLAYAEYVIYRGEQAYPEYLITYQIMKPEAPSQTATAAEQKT

[2] = biological target: T2, Poly [ADP-ribose] polymerase tankyrase-2 (Homo sapiens, UniProt Q9H2K2); assay: Inhibition of tankyrase 2 catalytic domain (unknown origin) expressed in Escherichia coli BL21 (DE3) assessed as reduction in ADP-ribosyl transferase activity using NAD+ by chemiluminescence detection based assay; settings: for pIC50: read-out: IC50; for IC50: read-out: pIC50 (converted)
T2 sequence (Q9H2K2 whole entry): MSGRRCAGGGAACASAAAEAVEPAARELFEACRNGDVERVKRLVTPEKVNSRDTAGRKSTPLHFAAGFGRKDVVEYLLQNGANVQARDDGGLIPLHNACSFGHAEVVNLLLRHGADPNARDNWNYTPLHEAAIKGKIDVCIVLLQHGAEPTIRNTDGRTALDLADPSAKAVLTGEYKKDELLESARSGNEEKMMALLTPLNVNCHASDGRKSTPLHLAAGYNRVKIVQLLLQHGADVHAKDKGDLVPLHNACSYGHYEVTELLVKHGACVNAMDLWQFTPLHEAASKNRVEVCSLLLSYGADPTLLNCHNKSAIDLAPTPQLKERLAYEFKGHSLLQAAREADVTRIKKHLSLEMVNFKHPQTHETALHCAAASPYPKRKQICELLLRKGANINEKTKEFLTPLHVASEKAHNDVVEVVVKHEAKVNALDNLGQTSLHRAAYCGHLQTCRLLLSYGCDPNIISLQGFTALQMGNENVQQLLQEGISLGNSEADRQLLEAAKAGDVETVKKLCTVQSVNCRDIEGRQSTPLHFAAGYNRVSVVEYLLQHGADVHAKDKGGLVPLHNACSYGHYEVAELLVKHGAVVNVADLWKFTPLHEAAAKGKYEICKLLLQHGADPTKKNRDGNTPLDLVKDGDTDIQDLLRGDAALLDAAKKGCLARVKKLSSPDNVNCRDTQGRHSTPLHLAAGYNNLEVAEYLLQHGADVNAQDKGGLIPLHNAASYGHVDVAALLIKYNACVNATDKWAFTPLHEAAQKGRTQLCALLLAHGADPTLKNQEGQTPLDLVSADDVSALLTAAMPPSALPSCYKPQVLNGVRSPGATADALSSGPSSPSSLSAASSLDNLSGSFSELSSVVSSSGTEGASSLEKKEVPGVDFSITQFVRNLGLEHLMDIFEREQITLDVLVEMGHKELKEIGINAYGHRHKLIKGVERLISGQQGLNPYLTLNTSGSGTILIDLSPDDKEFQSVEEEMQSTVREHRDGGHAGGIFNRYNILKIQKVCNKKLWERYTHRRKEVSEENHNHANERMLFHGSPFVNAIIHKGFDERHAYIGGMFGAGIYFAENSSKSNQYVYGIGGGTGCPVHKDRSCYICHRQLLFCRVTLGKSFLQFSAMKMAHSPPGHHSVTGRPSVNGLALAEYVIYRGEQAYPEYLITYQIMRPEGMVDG

[3] = biological target: Poly [ADP-ribose] polymerase 1 (Homo sapiens, UniProt P09874); assay: Inhibition of full length PARP1 (unknown origin) expressed in Escherichia coli BL21 (DE3) assessed as reduction in ADP-ribosyl transferase activity using NAD+ by chemiluminescence detection based assay
[4] = biological target: T3, Protein mono-ADP-ribosyltransferase PARP10 (Homo sapiens, UniProt Q53GL7); assay: Inhibition of full length PARP10 (unknown origin) expressed in Escherichia coli BL21 (DE3) assessed as reduction in ADP-ribosyl transferase activity using NAD+ by chemiluminescence detection based assay
T3 sequence (Q53GL7 whole entry): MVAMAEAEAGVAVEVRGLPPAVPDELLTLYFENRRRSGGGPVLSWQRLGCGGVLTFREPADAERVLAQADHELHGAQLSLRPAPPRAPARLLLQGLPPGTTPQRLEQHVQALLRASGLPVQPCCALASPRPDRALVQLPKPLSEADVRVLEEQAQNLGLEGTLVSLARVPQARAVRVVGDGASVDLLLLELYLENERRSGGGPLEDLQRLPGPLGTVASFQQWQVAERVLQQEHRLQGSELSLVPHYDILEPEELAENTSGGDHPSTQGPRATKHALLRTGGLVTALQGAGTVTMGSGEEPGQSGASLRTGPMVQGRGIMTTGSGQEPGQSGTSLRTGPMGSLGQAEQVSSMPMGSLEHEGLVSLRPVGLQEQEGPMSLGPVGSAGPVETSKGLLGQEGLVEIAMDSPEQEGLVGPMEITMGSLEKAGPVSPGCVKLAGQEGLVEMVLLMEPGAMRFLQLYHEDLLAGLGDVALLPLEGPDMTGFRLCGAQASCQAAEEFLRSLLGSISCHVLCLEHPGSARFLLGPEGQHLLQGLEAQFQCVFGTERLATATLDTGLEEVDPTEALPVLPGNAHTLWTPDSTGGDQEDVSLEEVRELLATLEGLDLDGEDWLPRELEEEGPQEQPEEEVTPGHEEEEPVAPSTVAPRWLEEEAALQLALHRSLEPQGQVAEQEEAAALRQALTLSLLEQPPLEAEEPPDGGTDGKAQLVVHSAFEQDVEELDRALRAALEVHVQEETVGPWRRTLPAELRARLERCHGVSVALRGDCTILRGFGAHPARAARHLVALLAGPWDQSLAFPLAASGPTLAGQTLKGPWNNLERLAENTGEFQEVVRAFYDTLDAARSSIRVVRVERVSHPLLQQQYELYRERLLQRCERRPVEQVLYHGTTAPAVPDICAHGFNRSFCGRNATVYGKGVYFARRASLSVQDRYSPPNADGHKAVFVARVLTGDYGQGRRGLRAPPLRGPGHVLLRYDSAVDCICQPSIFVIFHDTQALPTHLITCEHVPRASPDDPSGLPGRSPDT

Sequence of Poly [ADP-ribose] polymerase 1 (P09874 whole entry): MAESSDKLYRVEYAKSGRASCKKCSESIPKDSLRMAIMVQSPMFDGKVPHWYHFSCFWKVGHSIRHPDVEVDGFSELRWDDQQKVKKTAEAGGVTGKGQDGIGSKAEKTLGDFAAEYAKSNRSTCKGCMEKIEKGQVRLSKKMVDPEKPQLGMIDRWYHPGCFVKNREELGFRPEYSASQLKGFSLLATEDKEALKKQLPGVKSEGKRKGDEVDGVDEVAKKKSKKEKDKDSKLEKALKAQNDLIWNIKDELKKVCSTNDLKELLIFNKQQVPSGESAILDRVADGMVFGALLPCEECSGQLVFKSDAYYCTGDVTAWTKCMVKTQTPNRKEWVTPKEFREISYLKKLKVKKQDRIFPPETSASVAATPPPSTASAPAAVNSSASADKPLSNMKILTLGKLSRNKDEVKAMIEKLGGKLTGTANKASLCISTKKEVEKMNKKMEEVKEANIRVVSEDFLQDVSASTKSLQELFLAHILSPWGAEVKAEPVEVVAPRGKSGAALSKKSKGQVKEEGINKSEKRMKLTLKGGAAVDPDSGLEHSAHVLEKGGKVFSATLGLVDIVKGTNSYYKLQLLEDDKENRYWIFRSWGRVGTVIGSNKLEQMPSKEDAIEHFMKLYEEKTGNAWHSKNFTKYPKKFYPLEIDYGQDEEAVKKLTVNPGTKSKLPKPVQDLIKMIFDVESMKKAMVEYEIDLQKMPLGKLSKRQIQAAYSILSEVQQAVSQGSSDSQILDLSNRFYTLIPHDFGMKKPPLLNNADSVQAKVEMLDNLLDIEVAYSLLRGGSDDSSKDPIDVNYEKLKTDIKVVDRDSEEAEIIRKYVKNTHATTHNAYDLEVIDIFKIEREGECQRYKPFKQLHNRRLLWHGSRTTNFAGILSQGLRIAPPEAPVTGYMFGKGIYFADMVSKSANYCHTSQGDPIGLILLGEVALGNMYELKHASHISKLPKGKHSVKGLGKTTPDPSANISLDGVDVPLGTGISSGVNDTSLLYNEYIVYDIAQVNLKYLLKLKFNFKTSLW

Compound `CN(Cc1ccc(-n2cccn2)cc1)C(=O)c1ccccc1N1CCC(=O)NC1=O` has a pIC50 [1] of 5.60.
With `COc1ccc2c(c1)C(CC(=O)N[C@@H](CNC(=O)c1ccccc1N1CCC(=O)NC1=O)C(N)=O)CC2=O` (some centres not stated) the pIC50 [2] was 6.33, the IC50 [2] was 468 nM and the pIC50 [1] was 6.43. It also gave a pIC50 [3] of 7.55 and a pIC50 [4] of under 4.30.
`O=C1CCN(c2ccccc2C(=O)NCCc2ccc(Cl)cc2Cl)C(=O)N1` showed a pIC50 [1] of 6.15, a pIC50 [3] of 6.96 and a pIC50 [4] of under 4.30.
`O=C1CCN(c2ccccc2C(=O)NCCc2ccc(Cl)cc2)C(=O)N1` gave a pIC50 [2] of 5.62, an IC50 [2] of 2400 nM and a pIC50 [1] of 6.24. It also gave a pIC50 [4] of under 4.30.
Compound `O=C1CCN(c2ccccc2C(=O)NCc2ccc(-n3cccn3)cc2)C(=O)N1` has a pIC50 [2] of 5.08, an IC50 [2] of 8320 nM and a pIC50 [1] of 6.48. For the same compound, the pIC50 [3] was 6.66 and the pIC50 [4] was under 4.30.
Work on `O=C1CCN(c2ccccc2C(=O)NCCc2ccc(Br)cc2)C(=O)N1` yielded a pIC50 [2] of 6.04, an IC50 [2] of 912 nM and a pIC50 [1] of 6.46. For the same compound, the pIC50 [4] was under 4.30.
`COc1ccc2c(c1)C(CC(=O)N1CCN(C(=O)c3ccccc3N3CCC(=O)NC3=O)CC1)CC2=O` (configuration not stated) gave a pIC50 [2] of 6.48, an IC50 [2] of 331 nM and a pIC50 [1] of 6.54. It also gave a pIC50 [3] of 6.70 and a pIC50 [4] of 4.47.
In the case of `O=C1CCN(c2ccccc2C(=O)NCCc2nc(-c3ccccn3)no2)C(=O)N1`, the pIC50 [2] was 5.09, the IC50 [2] was 8130 nM and the pIC50 [1] was 6.60. It also gave a pIC50 [3] of 6.59 and a pIC50 [4] of 5.66.
`COc1ccc2c(c1)C(CC(=O)NCCNC(=O)c1ccccc1N1CCC(=O)NC1=O)CC2=O` (configuration not stated) was tested, and the pIC50 [2] was 5.10, the IC50 [2] was 7940 nM and the pIC50 [1] was 6.54. The pIC50 [3] was 7.39.
With `O=C1CCN(c2ccccc2C(=O)NCCc2ccccc2)C(=O)N1` the pIC50 [1] was 5.34.

Source: ChEMBL document CHEMBL3576815, “Tankyrase 1 Inhibitors with Drug-like Properties Identified by Screening a DNA-Encoded Chemical Library” (J Med Chem, 2015)
